For 98 compounds, cytotoxicity results are on record in ChEMBL document CHEMBL3507680, “University of Dundee, Gates Library screen for HepG2 cell viability”.

The nature of this data set: Human HepG2 cell viability assay in 384 well format. The class given is toxicity, cell-based. Further details: dose 125 nL, time 70.5 hour; concentration not given beside the values. Conditions: HepG2 cells, read-out: Inhibition.
For the compound `COc1ccc(CNC2CCCc3nc(N(C)C)ncc32)c(OC)c1` (stereo not drawn), the cytotoxicity at 70.5 h was -8.28%.

With `CCc1cnc(N2CCc3ncnc(N4CCN(C)CC4)c3CC2)nc1`, the cytotoxicity at 70.5 h is -3.37%.

For the compound `O=C(NCCCN1CCOCC1)c1ccc(-c2ccccc2)[nH]c1=O`, the cytotoxicity at 70.5 h is -5.86%.

In the case of `Cc1cc(C)c(C(=O)N2CCOC(c3cccs3)C2)c(=O)[nH]1` (stereo not drawn), the cytotoxicity at 70.5 h was -6.92%.

Regarding `CC(C)c1noc(CS(=O)(=O)CC(=O)NCc2cccs2)n1`, the cytotoxicity at 70.5 h was -9.72%.

For `CC(C)OCCOCC(O)CN(C)C(=O)Nc1ccc(F)cc1Cl` (stereo not drawn), the cytotoxicity at 70.5 h was -2.75%.

On to `COCc1noc(CN2C[C@H](C3CC3)[C@@H](N(C)C)C2)n1`, for which the cytotoxicity at 70.5 h was -8.41%.

Take `Cc1ccc(NC2CCN(C(=O)c3cccn3C)CC2)nn1`: the cytotoxicity at 70.5 h is 32.5%.

In the case of `O=C(CN1C[C@H]2CC[C@@H]1CN(Cc1ccccn1)C2)Nc1ccccc1`, the cytotoxicity at 70.5 h was -6.28%.

For the compound `NC(=O)C1Cc2ccccc2CN1CCC(=O)N1CCc2ccccc21` (stereo not drawn), the cytotoxicity at 70.5 h was -6.41%.

`CC(=O)N1CCN(C(=O)C(C)Nc2ccc3ncsc3c2)CC1` (stereo not drawn): the cytotoxicity at 70.5 h turned out to be 0.285%.

Consider `Cc1nccn1CCN(C)C(=O)C1CCN(C(=O)C2CCC2)CC1`, for which the cytotoxicity at 70.5 h came to 11.3%.

For the compound `Cc1cccc(S(=O)(=O)N2C[C@@H]3C[C@@H](c4nc(C)no4)O[C@@H]3C2)c1`, the cytotoxicity at 70.5 h is -3.34%.

Regarding `CN1CCC2(CC1)CN(C(=O)c1cccnc1)c1ccc(Cl)cc12`, the cytotoxicity at 70.5 h is -10.6%.

With `Cc1cnn(CC2CCCN2C(=O)c2cn(-c3ccccc3)nc2C)c1` (stereo not drawn), the cytotoxicity at 70.5 h was 6.33%.

Consider `COCc1nc(C(=O)NS(=O)(=O)c2ccc(C)cc2C)cs1`, for which the cytotoxicity at 70.5 h is -11.1%.

Regarding `Cc1sc(NS(=O)(=O)c2ccccc2)nc1C(=O)NC1CC1`, the cytotoxicity at 70.5 h was -1.95%.

On to `Cc1cc(Cl)cc(C)c1CNC1CCN(CC(=O)N(C)C)CC1`, for which the cytotoxicity at 70.5 h is -2.67%.

As to `O=C(c1ccccc1F)N1CC2(CCNCC2)c2cc(Cl)ccc21`, the cytotoxicity at 70.5 h was -9.74%.

Regarding `CC(C)Cc1cn(C2CCN(C(C)CCn3cccn3)CC2)nn1` (stereo not drawn), the cytotoxicity at 70.5 h was -11.6%.

Turning to `CCn1cc(Cl)c(C(=O)Nc2ccc3c(c2)C(C)(C)C(=O)N3C)n1`, the cytotoxicity at 70.5 h was -16.6%.

Turning to `COc1ccc(NC(=O)CCC2CCCN(Cc3ncon3)C2)cc1Cl` (stereo not drawn), the cytotoxicity at 70.5 h is -7.33%.

As to `CNC(=O)[C@H]1C[C@@H]2CN(C(=O)c3ccc(C)nc3)C[C@@H]2N1C(C)C`, the cytotoxicity at 70.5 h was -9.38%.

For the compound `c1cc(CN2C[C@@H]3OCCN(CCN4CCCC4)[C@@H]3C2)cs1`, the cytotoxicity at 70.5 h was -8.5%.

Turning to `Cc1cc(C)nc(N2CCC(c3ccnc(N(C)C)n3)CC2)n1`, the cytotoxicity at 70.5 h was -3.9%.

As for `CC(C)N1CCCC1c1cc(CCO)[nH]n1` (stereo not drawn), the cytotoxicity at 70.5 h was -9.45%.

On to `CC(C)(CC(=O)Nc1cccc(Oc2ccccn2)c1)C(=O)O`, for which the cytotoxicity at 70.5 h is -5.32%.

As to `Cn1nnc2c1CCN(S(C)(=O)=O)C2COCC1CC1` (stereo not drawn), the cytotoxicity at 70.5 h stood at 0.405%.

Take `Cc1ccc(CCNc2ncnc3sc4c(c23)CCNC4)o1`: the cytotoxicity at 70.5 h was -8.67%.

With `CSc1ncc(C(=O)N2C[C@H]3CC[C@@H]2CN(Cc2ccccc2)C3)cn1`, the cytotoxicity at 70.5 h is -1.13%.

As for `CCN(CC)S(=O)(=O)N(C)Cc1ccc2c(c1)OCCO2`, the cytotoxicity at 70.5 h was -2.26%.

On to `COCCNC(=O)[C@H]1C[C@@H]2CCN(Cc3nccs3)C[C@H]2O1`, for which the cytotoxicity at 70.5 h is -13.5%.

As to `NC(=O)C1CN(C(=O)Nc2ccccc2OCC(F)(F)F)CCO1` (stereo not drawn), the cytotoxicity at 70.5 h is -4.53%.

Consider `CCCS(=O)(=O)N1C[C@H]2C[C@H](C(=O)N3CCN(C)CC3)[C@@H](C1)O2`, for which the cytotoxicity at 70.5 h came out at 4.46%.

On to `O=C(NC1CCCCC1)N1CCC(N2Cc3ncccc3C2=O)CC1`, for which the cytotoxicity at 70.5 h was -13.7%.

Consider `O=C(NCCCc1ccco1)c1cnc(N2CCOCC2)nc1`, for which the cytotoxicity at 70.5 h is -18.7%.

In the case of `Cc1nnc(NC(=O)CN2CCCC(c3ccn[nH]3)C2)s1` (stereo not drawn), the cytotoxicity at 70.5 h stood at 18.6%.

With `Cc1nccn1-c1cccc(C2CCCN(C(=O)c3cc[nH]n3)C2)n1` (stereo not drawn), the cytotoxicity at 70.5 h was 24.4%.

As to `Cn1cc(C2SCC(=O)Nc3c2cnn3C(C)(C)C)cn1` (stereo not drawn), the cytotoxicity at 70.5 h came to 0.666%.

Take `CC(C)Cc1cc(NC(=O)c2ccc3[nH]nnc3c2)n(C)n1`: the cytotoxicity at 70.5 h was 14.7%.

For the compound `COc1ccccc1OC1CCN(C(=O)c2c[nH]c(=O)[nH]c2=O)CC1`, the cytotoxicity at 70.5 h is -4.88%.

In the case of `CCN(Cc1nc(COC)no1)C(=O)CCNC(=O)c1ccccc1F`, the cytotoxicity at 70.5 h was 22.4%.

Turning to `c1coc(CN2CCC3(CC2)COC(COCC2CC2)C3)c1` (stereo not drawn), the cytotoxicity at 70.5 h is 15.1%.

Consider `COC(=O)NCCC(=O)NC(c1ccc(Cl)cc1)C(F)(F)F` (stereo not drawn), for which the cytotoxicity at 70.5 h is -8.05%.

`CN(Cc1ccccc1)CC(O)Cn1cnc2c(cnn2C)c1=O` (stereo not drawn): the cytotoxicity at 70.5 h is -5.87%.

In the case of `CC(=O)N1CCC(C(=O)N(CC(F)F)c2cccc(Cl)c2)CC1`, the cytotoxicity at 70.5 h came out at 0.334%.

Consider `CC(C)Nc1ncnc2c1CCN(Cc1nccn1C)CC2`, for which the cytotoxicity at 70.5 h came out at 8.85%.

`COc1cccc(-c2ccc(CNC(=O)c3ccc(=O)n(C)c3)cc2)c1`: the cytotoxicity at 70.5 h was 6.19%.

On to `Cc1cccc(N2CCN(C(=O)CNCCn3cccn3)CC2)c1`, for which the cytotoxicity at 70.5 h is 9.75%.

Consider `Cc1cccc(CNC2CC(=O)N(Cc3cccc(F)c3)C2)c1` (stereo not drawn), for which the cytotoxicity at 70.5 h was -4.77%.

Consider `CNc1cc(C)nc(-c2cc(NC3CCNCC3)nc3[nH]ccc23)n1`, for which the cytotoxicity at 70.5 h is -4.41%.

`CCOc1cc(Cl)ccc1CNC(=O)c1ccc(=O)n(C)c1`: the cytotoxicity at 70.5 h was found to be 11.4%.

For `c1cn(-c2ccc(N3CCC(NC4CC4)CC3)cc2)cn1`, the cytotoxicity at 70.5 h is -14.2%.

On to `COc1cc(C(=O)O)ccc1OCC(=O)NC(C)c1ccc(F)cc1` (stereo not drawn), for which the cytotoxicity at 70.5 h was -5.08%.

`Cn1cc(CN2CCc3ncnc(N4CCOCC4)c3CC2)cn1`: the cytotoxicity at 70.5 h was -1.66%.

In the case of `O=C1NCCN1C1CCCN(Cc2coc(-c3ccc(F)cc3)n2)C1` (stereo not drawn), the cytotoxicity at 70.5 h came out at 31%.

For `COc1ccc(CNC(c2cccc(F)c2)c2cnn(C)c2)cc1` (stereo not drawn), the cytotoxicity at 70.5 h was -3.12%.

For `O=C(Nc1nccs1)N1CCCC(N2CCNC2=O)C1` (stereo not drawn), the cytotoxicity at 70.5 h was found to be 1.93%.

`O=C(Cc1csc(-c2ccc(Cl)cc2)n1)NC(C(=O)O)c1ccccc1` (stereo not drawn): the cytotoxicity at 70.5 h is -9.96%.

For the compound `CCn1ncc2c1C(COC)CN(Cc1cccnc1)C2` (stereo not drawn), the cytotoxicity at 70.5 h turned out to be 21.4%.

As for `C=C(C)CNC(C)c1ccc(S(C)(=O)=O)c(F)c1` (stereo not drawn), the cytotoxicity at 70.5 h is -9.09%.

As to `Cc1noc(C2CCN(CC(=O)N3CCNC(=O)C3)CC2)n1`, the cytotoxicity at 70.5 h stood at 17.7%.

Take `CC(C)(C)N1CC(c2ncc(-c3ccc4c(c3)OCCO4)[nH]2)CC1=O` (stereo not drawn): the cytotoxicity at 70.5 h is -2.24%.

Turning to `CN(C)C(=O)COC[C@H]1CC[C@@H]2[C@@H](CCN2Cc2ccco2)O1`, the cytotoxicity at 70.5 h is 7.59%.

With `Cc1ccc(C(=O)N2CCc3ncnc(C)c3CC2)o1`, the cytotoxicity at 70.5 h worked out at 9.18%.

For `c1cncc(CN2CCC3(CC2)CC(c2cccnc2)CO3)c1` (stereo not drawn), the cytotoxicity at 70.5 h is -6.23%.

Regarding `CNCc1cn(C[C@H]2CC3CCN2C[C@@H]3C(=O)Nc2ccccc2)nn1` (stereo partly drawn), the cytotoxicity at 70.5 h is -9.94%.

Take `COC(=O)NCC(=O)NCC(C)(C)c1cccc(Br)c1`: the cytotoxicity at 70.5 h was -0.269%.

For the compound `CCCc1n[nH]c(C2CN(C(=O)CCCn3ccnc3C)CCO2)n1` (stereo not drawn), the cytotoxicity at 70.5 h was found to be 4.08%.

Regarding `CCC1CN(CC(=O)NCCN2CCCCC2)c2ccccc2S1` (stereo not drawn), the cytotoxicity at 70.5 h is -3.08%.

As for `CCc1ccc(CN2CCCC(CO)(CCOC)C2)cc1` (stereo not drawn), the cytotoxicity at 70.5 h was -8.83%.

For the compound `CC(NC(=O)c1ccoc1)C(=O)N(C)Cc1ccc(O)cc1` (stereo not drawn), the cytotoxicity at 70.5 h stood at 3.58%.

For the compound `CCc1nc(C2CCCN2Cc2nccn2Cc2ccccc2)no1` (stereo not drawn), the cytotoxicity at 70.5 h was -10.3%.

In the case of `CN1C[C@@H]2CN(Cc3ccsc3)CCC[C@]2(C(=O)O)C1`, the cytotoxicity at 70.5 h was -2.55%.

`CC1CC(NS(=O)(=O)c2ccc(C(F)(F)F)nc2)C1` (stereo not drawn): the cytotoxicity at 70.5 h was determined as 26.5%.

In the case of `CN(C)C[C@H]1C[C@@H]2CN(Cc3ccoc3)C[C@@H]2O1`, the cytotoxicity at 70.5 h was -12.5%.

Regarding `COc1cc(Cl)c(C)cc1-n1nnc(C(=O)O)c1-c1ccncc1`, the cytotoxicity at 70.5 h came out at 28.1%.

Regarding `Cc1nc(C(=O)Nc2cc(N3CCNC3=O)ccc2Cl)cs1`, the cytotoxicity at 70.5 h was -2.48%.

As to `COCCN(Cc1ccoc1)C(=O)c1ccccc1Cl`, the cytotoxicity at 70.5 h is 6.96%.

On to `CCC(C)N1Cc2c(C(=O)N3CCOCC3)nn(C)c2C1` (stereo not drawn), for which the cytotoxicity at 70.5 h was -6.15%.

For `CCc1cc(N(C)Cc2nonc2C)nc(N(C)C)n1`, the cytotoxicity at 70.5 h stood at 7.36%.

With `CNC(=O)c1cccc(C2CNCCN2C(C)=O)c1` (stereo not drawn), the cytotoxicity at 70.5 h is 14.8%.

Consider `CCCc1cc(=O)[nH]c(-c2ccccc2CN(C)CCC(C)C)n1`, for which the cytotoxicity at 70.5 h is 18.2%.

As to `CCOCC1CN(S(C)(=O)=O)Cc2cnn(C)c21` (stereo not drawn), the cytotoxicity at 70.5 h is -11.1%.

Regarding `Cc1cc(C)n(CC2CN(c3ncnc4[nH]ccc34)CCO2)n1` (stereo not drawn), the cytotoxicity at 70.5 h turned out to be 1.04%.

As to `O=C(NCCn1nc2ccccn2c1=O)c1cc(-c2ccccc2)[nH]n1`, the cytotoxicity at 70.5 h was -5.05%.

In the case of `CNC(=O)Cn1ccc2ccc(NC(=O)C(C)CSC)cc21` (stereo not drawn), the cytotoxicity at 70.5 h was -5.03%.

As to `CC(C)(C)OC(=O)NCCNC(=O)c1ccc(-c2ccco2)[nH]c1=O`, the cytotoxicity at 70.5 h is -0.98%.

Regarding `CCSCCC(=O)NCCn1nc2ccccn2c1=O`, the cytotoxicity at 70.5 h was -7.12%.

For `CN(C)c1ccc(C(=O)N2CCCC(n3cccn3)C2)nn1` (stereo not drawn), the cytotoxicity at 70.5 h was -4.36%.

Take `Cc1cccc(CNC2(CCO)CCOCC2)c1C`: the cytotoxicity at 70.5 h is -2.52%.

On to `OCc1cccc(CNCc2cccc3c2OCCO3)c1`, for which the cytotoxicity at 70.5 h was -1.29%.

As for `Cc1nnc2n1CCN(c1nn3cc(C(C)(C)C)nc3s1)C2`, the cytotoxicity at 70.5 h is -7.66%.

With `CCc1ccccc1CNC(=O)CNC(=O)C(C)(C)C`, the cytotoxicity at 70.5 h is -6.65%.

For `CCC(C(=O)NCc1ccncc1)N(c1ccc(F)cc1)S(C)(=O)=O` (stereo not drawn), the cytotoxicity at 70.5 h is -0.482%.

Regarding `N[C@@H]1CC[C@@H](Nc2nccc(CCC(F)(F)F)n2)C1`, the cytotoxicity at 70.5 h is -6.78%.

`Cc1ccc(CC(=O)N2CCC(Nc3ccc(C)nn3)CC2)cn1`: the cytotoxicity at 70.5 h was -1.2%.

`O=C(NS(=O)(=O)c1ccc2c(c1)OCCO2)c1ccc(Br)cc1F`: the cytotoxicity at 70.5 h is 5.66%.
